Results from ChEMBL document CHEMBL1201862, “PubChem BioAssay data set” (2004).
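Dose response: 5 concentrations. Exposure: 48 h. Format: 96-well plates. Endpoint: linear interpolation; highest concentration if not reached. Abbreviation: GI50, concentration required for 50% inhibition of growth.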 The source made the active and inactive calls. No stated cut-off is given here; in the data, active = GI50 up to about 1.1 µM and inactive = higher. Where a SMILES comes first, the peptide text is derived from it. [ ]: non-standard residue; d: D form. Phe(4-NO2) = N[CH](Cc1ccc([N+](=O)[O-])cc1)C(=O)O

Experiments:
Assay in all cases: DTP human tumour cell line panel, 48 h
HCT-116 = system: HCT-116
OVCAR-4 = system: OVCAR-4
HCC 2998 = system: HCC 2998
SK-MEL-28 = system: SK-MEL-28
HCT-15 = system: HCT-15
CCRF-CEM = system: CCRF-CEM
SK-MEL-5 = system: SK-MEL-5
DU-145 = system: DU-145
SF-295 = system: SF-295
KM12 = system: KM12
MCF7 = system: MCF7
HOP-62 = system: HOP-62
Malme-3M = system: Malme-3M
RXF 393 = system: RXF 393
SN12C = system: SN12C
COLO 205 = system: COLO 205
UO-31 = system: UO-31
NCI-H522 = system: NCI-H522
BT-549 = system: BT-549

SMILES	GI50 (HCT-116)	GI50 (OVCAR-4)	GI50 (HCC 2998)	GI50 (SK-MEL-28)	GI50 (HCT-15) [µM]	GI50 (CCRF-CEM)	GI50 (SK-MEL-5)	GI50 (DU-145)	GI50 (SF-295)	GI50 (KM12)	GI50 (MCF7)	GI50 (HOP-62)	GI50 (Malme-3M)	GI50 (RXF 393)	GI50 (SN12C)	GI50 (COLO 205)	GI50 (UO-31)	GI50 (NCI-H522)	GI50 (BT-549)
CCCCCCCCCC/C=C/CC(=O)SCCNC(=O)CCNC(=O)[C@@H](O)C(C)(C)COP(=O)(O)OP(=O)(O)OCC1OC(n2cnc3c(N)ncnc32)C(O)C1OP(=O)(O)O (some centres undefined)	> 10 µM (inactive)	> 10 µM (inactive)	> 10 µM (inactive)	> 10 µM (inactive)	> 10	> 10 µM (inactive)	> 10 µM (inactive)	> 10 µM (inactive)	> 10 µM (inactive)	> 10 µM (inactive)	> 10 µM (inactive)	> 10 µM (inactive)	> 10 µM (inactive)	> 10 µM (inactive)	> 10 µM (inactive)	> 10 µM (inactive)	–	–	–
OC1(c2ccccc2)C2CCN(CC2)C1CN1CCOCC1 (centres undefined)	> 100 µM (inactive)	> 100 µM (inactive)	> 100 µM (inactive)	> 100 µM (inactive)	> 100	> 100 µM (inactive)	> 100 µM (inactive)	> 100 µM (inactive)	> 100 µM (inactive)	> 100 µM (inactive)	> 100 µM (inactive)	> 100 µM (inactive)	> 100 µM (inactive)	> 100 µM (inactive)	> 100 µM (inactive)	> 100 µM (inactive)	> 100 µM (inactive)	> 100 µM (inactive)	–
CCOC(=O)Nc1ccc(C)c(NC(=O)OCC)c1	> 100 µM (inactive)	–	56.2 µM (inactive)	> 100 µM (inactive)	> 100	> 100 µM (inactive)	> 100 µM (inactive)	> 100 µM (inactive)	> 100 µM (inactive)	> 100 µM (inactive)	> 100 µM (inactive)	> 100 µM (inactive)	> 100 µM (inactive)	> 100 µM (inactive)	> 100 µM (inactive)	> 100 µM (inactive)	> 100 µM (inactive)	> 100 µM (inactive)	–
Cc1cccc2c1C(=O)OC2(C)c1cccc2ccccc12 (centres undefined)	–	22.4 µM (inactive)	20.9 µM (inactive)	41.3 µM (inactive)	29	17.5 µM (inactive)	16.4 µM (inactive)	–	32.1 µM (inactive)	27.6 µM (inactive)	–	–	25.5 µM (inactive)	22.6 µM (inactive)	21.2 µM (inactive)	–	32.8 µM (inactive)	16.8 µM (inactive)	–
CC(c1ccccc1)n1c2ccccc2c2c(N)ncnc21 (centres undefined)	21.5 µM (inactive)	13.6 µM (inactive)	18.2 µM (inactive)	17.9 µM (inactive)	23.4	27.8 µM (inactive)	19.5 µM (inactive)	18.6 µM (inactive)	17 µM (inactive)	–	20.7 µM (inactive)	17.5 µM (inactive)	21.2 µM (inactive)	18.3 µM (inactive)	–	–	9.16 µM (inactive)	13.6 µM (inactive)	–
COc1ccc(/C=C2\C(=O)N(C(=O)c3ccc(NC(C)=O)cc3)N=C2C)cc1OC	> 100 µM (inactive)	> 100 µM (inactive)	> 100 µM (inactive)	> 100 µM (inactive)	> 100	> 100 µM (inactive)	> 100 µM (inactive)	–	> 100 µM (inactive)	> 100 µM (inactive)	–	> 100 µM (inactive)	> 100 µM (inactive)	–	> 100 µM (inactive)	> 100 µM (inactive)	> 100 µM (inactive)	> 100 µM (inactive)	–
O=C1CCC2CCC1C2 (centres undefined)	> 100 µM (inactive)	> 100 µM (inactive)	> 100 µM (inactive)	> 100 µM (inactive)	> 100	> 100 µM (inactive)	> 100 µM (inactive)	> 100 µM (inactive)	> 100 µM (inactive)	> 100 µM (inactive)	> 100 µM (inactive)	> 100 µM (inactive)	> 100 µM (inactive)	96.4 µM (inactive)	> 100 µM (inactive)	> 100 µM (inactive)	> 100 µM (inactive)	–	–
O=C(/C=C/c1cccs1)c1ccc(Cl)s1	18.2 µM (inactive)	48.5 µM (inactive)	18.7 µM (inactive)	29.2 µM (inactive)	18.2	25.1 µM (inactive)	50.7 µM (inactive)	56 µM (inactive)	37.8 µM (inactive)	21.8 µM (inactive)	17.2 µM (inactive)	> 100 µM (inactive)	> 100 µM (inactive)	–	18.6 µM (inactive)	> 10 µM (inactive)	19.9 µM (inactive)	–	–
CN1c2ccccc2C(=O)NC12CCN(CC1COc3ccccc3O1)CC2 (centres undefined)	37.3 µM (inactive)	29.9 µM (inactive)	> 100 µM (inactive)	55.3 µM (inactive)	–	36.1 µM (inactive)	16.2 µM (inactive)	61 µM (inactive)	57.7 µM (inactive)	32.6 µM (inactive)	31.8 µM (inactive)	49.8 µM (inactive)	33 µM (inactive)	> 100 µM (inactive)	–	48.3 µM (inactive)	16.9 µM (inactive)	–	–
N#Cc1c(-c2ccccc2)c(/C=N/c2ccc(Cl)cc2)c(=O)n2c1[nH]c1ccccc12	0.424 µM (active)	> 100 µM (inactive)	> 100 µM (inactive)	> 100 µM (inactive)	> 100	21.4 µM (inactive)	> 100 µM (inactive)	–	50.5 µM (inactive)	54.1 µM (inactive)	> 100 µM (inactive)	73.5 µM (inactive)	> 100 µM (inactive)	> 100 µM (inactive)	97.7 µM (inactive)	83 µM (inactive)	34.4 µM (inactive)	61.2 µM (inactive)	> 100 µM (inactive)
CCOC(=O)Cc1cc(=O)[nH]c(-n2[nH]c(C)c(CCO)c2=O)n1	> 100 µM (inactive)	> 100 µM (inactive)	> 100 µM (inactive)	> 100 µM (inactive)	> 100	> 100 µM (inactive)	> 100 µM (inactive)	> 100 µM (inactive)	> 100 µM (inactive)	> 100 µM (inactive)	> 100 µM (inactive)	> 100 µM (inactive)	> 100 µM (inactive)	> 100 µM (inactive)	> 100 µM (inactive)	> 100 µM (inactive)	> 100 µM (inactive)	> 100 µM (inactive)	–
CN(N=O)C(=O)Nc1c[nH]c(=O)[nH]c1=O	> 100 µM (inactive)	> 100 µM (inactive)	> 100 µM (inactive)	> 100 µM (inactive)	> 100	> 100 µM (inactive)	> 100 µM (inactive)	> 100 µM (inactive)	> 100 µM (inactive)	> 100 µM (inactive)	> 100 µM (inactive)	> 100 µM (inactive)	> 100 µM (inactive)	–	> 100 µM (inactive)	> 100 µM (inactive)	> 100 µM (inactive)	> 100 µM (inactive)	–
CC(=O)OCc1cc(OC(C)=O)c2cc3c(OC(C)=O)cccc3c(OC(C)=O)c2c1	19.7 µM (inactive)	17.8 µM (inactive)	14.5 µM (inactive)	23 µM (inactive)	5.61	> 10 µM (inactive)	11.2 µM (inactive)	16.7 µM (inactive)	13.6 µM (inactive)	–	12.8 µM (inactive)	16.9 µM (inactive)	1.64 µM (inactive)	–	12.2 µM (inactive)	6.67 µM (inactive)	17 µM (inactive)	–	20.1 µM (inactive)
CN1C(=O)C(CCO)(C(C)(C)C)c2ccccc21 (centres undefined)	> 100 µM (inactive)	> 100 µM (inactive)	> 100 µM (inactive)	> 100 µM (inactive)	> 100	> 100 µM (inactive)	> 100 µM (inactive)	> 100 µM (inactive)	> 100 µM (inactive)	> 100 µM (inactive)	> 100 µM (inactive)	> 100 µM (inactive)	–	> 100 µM (inactive)	> 100 µM (inactive)	> 100 µM (inactive)	> 100 µM (inactive)	–	–
COc1ccc(C=O)c([N+](=O)[O-])c1	4.09 µM (inactive)	76.6 µM (inactive)	> 10 µM (inactive)	> 100 µM (inactive)	9.27	4.51 µM (inactive)	17 µM (inactive)	–	21 µM (inactive)	22.8 µM (inactive)	–	40.7 µM (inactive)	21.5 µM (inactive)	> 100 µM (inactive)	41.7 µM (inactive)	53.3 µM (inactive)	37.7 µM (inactive)	> 100 µM (inactive)	–
COC(=O)CCC(NC(=O)C(CCC(=O)OC)NC(=O)C(CCC(=O)OC)NC(=O)C(CCC(=O)OC)NC(=O)C(CCC(=O)OC)NC(=O)C(Cc1ccc([N+](=O)[O-])cc1)NC(=O)C(CCC(=O)OC)NC(=O)C(CCC(=O)OC)NC(=O)C(CCC(=O)OC)NC(=O)C(CCC(=O)OC)NC(=O)C(CCC(=O)OC)NC(C)=O)C(N)=O (centres undefined) (Ac-E(OMe)E(OMe)E(OMe)E(OMe)E(OMe)[Phe(4-NO2)]E(OMe)E(OMe)E(OMe)E(OMe)E(OMe)-NH2; configuration not given here)	> 100 µM (inactive)	> 100 µM (inactive)	–	> 100 µM (inactive)	> 10	> 100 µM (inactive)	26.1 µM (inactive)	> 100 µM (inactive)	31.4 µM (inactive)	> 100 µM (inactive)	> 100 µM (inactive)	–	> 100 µM (inactive)	> 100 µM (inactive)	> 100 µM (inactive)	> 100 µM (inactive)	> 100 µM (inactive)	> 100 µM (inactive)	–
